Results reported in patent US11548875B2, “Inhibitor compounds for male contraception” (University of Washington, priority 2018, dated 2023).
Like-named read-outs stand apart in the source and are kept apart here.

What was measured:
ALDH1A1 [1] = molecular target: T1, ALDH1A1 (Homo sapiens, UniProt P00352); assay: Inhibitor screening using purified enzymes: ALDH1A1 activity, retinoic acid production by HPLC; assay type: biochemical; settings: purified enzyme
T1 sequence (P00352 1-501): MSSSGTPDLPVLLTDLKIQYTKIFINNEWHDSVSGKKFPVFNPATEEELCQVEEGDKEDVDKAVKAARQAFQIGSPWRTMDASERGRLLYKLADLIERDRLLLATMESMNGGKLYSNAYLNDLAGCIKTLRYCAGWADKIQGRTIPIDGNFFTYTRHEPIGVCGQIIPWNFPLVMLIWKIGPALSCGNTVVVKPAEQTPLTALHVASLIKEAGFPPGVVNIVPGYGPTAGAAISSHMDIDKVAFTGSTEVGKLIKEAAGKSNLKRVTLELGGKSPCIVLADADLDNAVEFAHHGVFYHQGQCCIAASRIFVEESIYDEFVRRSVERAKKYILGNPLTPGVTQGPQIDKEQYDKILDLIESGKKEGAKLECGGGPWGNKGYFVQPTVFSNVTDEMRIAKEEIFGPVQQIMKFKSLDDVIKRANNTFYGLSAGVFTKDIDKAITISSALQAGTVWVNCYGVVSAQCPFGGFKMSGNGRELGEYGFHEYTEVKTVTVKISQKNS
Source text: ALDHs were cloned into bacterial expression vector for in vitro enzyme assays and into mammalian expression vectors for cell-based enzyme assays. Human ALDH1A1 cDNA and human ALDH2 cDNA were purchased from OriGene (SC321535) and Open Biosystems (MHS4771-99611182), respectively. and human ALDH1A2 cDNA was cloned from human testis RNA using RT-PCR (Population Division of the Department of Economic and Social Affairs of the United Nations Secretariat. World Population prospects: the 2008 revision. Available at http://www.un.org/esa/population/ (Retrieved Sep. 30, 2011)). For bacterial expression, an open reading frame of ALDH1A1 and ALDH2 were subcloned into the pETite vector (Lucigen) with a 5′ histidine-tag and that of ALDH1A2 into a pET28 vector (Novagen) with a 3′ histidine-tag. Correct frame and sequences were verified through DNA sequencing (UW DNA sequencing facility). ALDHs were induced with 1 mM IPTG and purified using His.Bind resin (Novagen, San Diego, Calif.) and stored in a buffer containing 20 mM Hepes (pH 8), 150 mM KCl and 1 mM EDTA as previously described (Fierce, Y., de Morais Vieira, M., Piantedosi, R., Wyss, A., Blaner, W. S., and Paik, J. (2008) In vitro and in vivo characterization of retinoid synthesis from beta-carotene. Archives of biochemistry and biophysics 472, 126-138).
ALDH1A1 and ALDH1A2 activity was determined as previously reported (Beedle M T, Stevison F, Zhong G, Topping T, Hogarth C, Isoherranen N, Griswold M D. Sources of All-Trans Retinal Oxidation Independent of the Aldehyde Dehydrogenase 1A Isozymes Exist in the Postnatal Testis. Biol Reprod. 2018 Sep. 21. doi: 10.1093/biolre/ioy200). Briefly, purified enzymes were incubated in a buffer containing 10 mM HEPES buffer (pH 8.0), 150 mM potassium chloride and 2 mM EDTA with 2 mM NAD. Retinoic acid production was determined using HPLC as previously reported (Amory J K, Muller C H, Shimshoni A J, Isoherranen N, Paik J, Moreb J S, Amory D W, Evanoff R, Goldstein A S, Griswold M D. Suppression of spermatogenesis by bisdichloroacetyldiamines is mediated by inhibition of testicular retinoic acid biosynthesis. Journal of Andrology 2011; 32(1):111-119). Inhibitors were diluted in DMSO and added to the reactions. […] For initial screening of inhibitors for ALDH1A2, 1 μg ALDH1A2, 5 μM all-trans-retinal and 5 μM inhibitors were incubated for 15 min at 37° C. […] For this purpose, 0.5 μg ALDH1A2 and […] were incubated for 5 minutes at 37° C. with varying concentrations of inhibitors. To determine specificity toward ALDH1A2, the IC50 for […]

ALDH1A2 [2] = molecular target: T2, ALDH1A2 (Homo sapiens, UniProt O94788); assay: Cell-based enzyme assay, retinoic acid production in ALDH1A2/H1299 cells
T2 sequence (O94788 1-518): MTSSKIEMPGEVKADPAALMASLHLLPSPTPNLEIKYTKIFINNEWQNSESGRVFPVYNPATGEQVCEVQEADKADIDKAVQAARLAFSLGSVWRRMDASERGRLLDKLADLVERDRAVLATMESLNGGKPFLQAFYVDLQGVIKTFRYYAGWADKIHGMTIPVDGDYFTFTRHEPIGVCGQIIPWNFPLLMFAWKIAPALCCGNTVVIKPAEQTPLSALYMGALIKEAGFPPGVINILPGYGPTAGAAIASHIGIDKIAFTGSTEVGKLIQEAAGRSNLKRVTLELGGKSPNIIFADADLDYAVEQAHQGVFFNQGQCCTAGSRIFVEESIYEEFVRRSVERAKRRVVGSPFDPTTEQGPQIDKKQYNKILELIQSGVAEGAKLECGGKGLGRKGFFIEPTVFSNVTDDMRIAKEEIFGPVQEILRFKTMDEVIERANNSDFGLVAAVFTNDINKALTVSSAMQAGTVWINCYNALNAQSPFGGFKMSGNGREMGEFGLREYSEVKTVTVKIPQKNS
Experimental: (§1) ALDH1A1 cDNA clone was purchased transfection-ready, and ALDH1A2 full-length cDNA was subcloned into pcDNA3, a mammalian expression vector. ALDH1A1 and ALDH1A2 were transfected into H1299 cells (CRL5803, ATCC) using Lipofectamine 3000 (Invitrogen) following the manufacturer's instructions. Stably transfected cells were selected with G418 (1.2 mg/ml) and referred to as ALDH1A1/H1299 and ALDH1A2/H1299. For the cell-based enzyme assays,
(§2) H1299 cells were routinely grown in RPMI-1640 (ATCC) supplemented with 10% fetal bovine serum (Atlanta Biologicals) in a 37 C, 5% CO2, moisture-saturated atmosphere. H1299, ALDH1A1/H1299 and ALDH1A2/H1299 cells were seeded into 12-well plates (1×10^5 cells/well) and grown for 2 days to confluence. Confluent cells were treated for 20 hours in the above media excluding serum with 2 μM all-trans-retinal, and varying concentrations of inhibitors. Serum-free media was used for the treatment period to avoid retinoic acid in serum. Retinoic acid concentrations were determined from cells and media, and specificity of inhibitors was determined by comparing retinoic acid levels in the presence and absence of the inhibitors in ALDH1A1- vs. ALDH1A2-expressing cells.

ALDH1A2 [3] = molecular target: T2, ALDH1A2; assay: Inhibitor screening using purified enzymes: ALDH1A2 activity, retinoic acid production by HPLC (5 uM initial screen, then IC50); assay type: biochemical; set-up: histidine-tag (C); made in house; host or cells: bacterial expression (pET28 vector, IPTG induction); settings: purified enzyme
In short: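 Purified His-tagged human enzymes in 10 mM HEPES pH 8.0, 150 mM KCl, 2 mM EDTA with 2 mM NAD, all-trans-retinal substrate; retinoic acid quantified by HPLC. ALDH1A2 initial screen: 1 μg enzyme, 5 μM retinal, 5 μM inhibitor, 15 min, 37° C; IC50 runs: 0.5 μg enzyme, 0.5 μg retinal, 5 min, 37° C.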

ALDH1A1 [4] = molecular target: T1, ALDH1A1; assay: Cell-based enzyme assay, retinoic acid production in ALDH1A1/H1299 cells
Experimental: as §1, §2

mice = settings: cited from earlier work
ALDH2 = molecular target: T3, ALDH2 (Homo sapiens, UniProt P05091); assay: Purified ALDH2 assay with propanal, NADH fluorescence; assay type: biochemical; settings: purified enzyme
T3 construct: histidine-tag (N); made in house; host or cells: bacterial expression (pETite vector, IPTG induction)
T3 sequence (P05091 18-517): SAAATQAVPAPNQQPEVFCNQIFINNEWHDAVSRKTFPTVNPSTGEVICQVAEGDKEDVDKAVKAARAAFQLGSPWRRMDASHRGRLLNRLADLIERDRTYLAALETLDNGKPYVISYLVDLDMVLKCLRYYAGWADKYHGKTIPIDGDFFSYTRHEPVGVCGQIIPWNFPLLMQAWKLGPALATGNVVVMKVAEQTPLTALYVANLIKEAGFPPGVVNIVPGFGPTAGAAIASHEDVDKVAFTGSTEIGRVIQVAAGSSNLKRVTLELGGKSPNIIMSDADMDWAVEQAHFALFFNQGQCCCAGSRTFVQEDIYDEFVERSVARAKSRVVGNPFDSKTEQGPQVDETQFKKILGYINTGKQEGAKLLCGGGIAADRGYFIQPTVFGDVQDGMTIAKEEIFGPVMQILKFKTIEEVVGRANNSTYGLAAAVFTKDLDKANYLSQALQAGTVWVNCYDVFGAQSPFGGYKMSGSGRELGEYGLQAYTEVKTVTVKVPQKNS
In short: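 His-tagged human ALDH2 expressed in bacteria and purified. 2 μg enzyme incubated with 20 μM propanal and varying inhibitor concentrations at room temperature. Activity read as NADH fluorescence (Ex 350/Em 460 nm), with initial velocity from two consecutive readings over 1 minute.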

Row | Compound | IC50 (ALDH1A1 [1]) [µM] | EC50 (ALDH1A2 [2]; cell-based) [µM] | IC50 (ALDH1A2 [3]) [µM] | EC50 (ALDH1A1 [4]; cell-based) [µM] | fertility (mice; mice, oral) | liver toxicity (mice; mouse, in vivo) | effect on spermatogenesis (mice; oral doses as low as 5 mg/kg for seven days) | IC50 (ALDH2) [µM] | EC50 (ALDH1A2 [2]) [µM] | EC50 (ALDH1A1 [4]) [µM]
1 | N#Cc1ccc(-n2cc(C(=O)Nc3cccc(F)c3)c(-c3ccc(NC(=O)C(Cl)Cl)cc3)n2)cc1 [Compound 310, 3-{4-[(Dichloroacetyl)amino]phenyl}-1-(4-cyanophenyl)-N-(3-fluorophenyl)-1H-pyrazole-4-carboxamide] | 0.009 | 0.245 | 0.065 | 0.14 |  |  |  |  |  | 
2 | BMS-189453 |  |  |  |  | infertile after four weeks of treatment | hepatic inflammation | potently inhibits spermatogenesis |  |  | 
3 | Cc1ccccc1-c1nn(-c2ccccc2)cc1C(=O)Nc1cccc(F)c1 [Compound 149, N-(3-Fluorophenyl)-3-(2-methylphenyl)-1-phenyl-1H-pyrazole-4-carboxamide] | 0.601 |  | 2.15 |  |  |  |  | 4.6 |  | 
4 | CON(C)C(=O)c1ccc(-c2nn(-c3ccc(C#N)cc3)cc2C(=O)Nc2cccc(F)c2)cc1 [Compound 296] | 9.44 | 0.023 | 0.15 | 0.542 |  |  |  |  |  | 
5 | 3-{4-[(Difluoroacetyl)amino]phenyl}-1-(4-cyanophenyl)-N-(3-fluorophenyl)-1H-pyrazole-4-carboxamide [Compound 279] | 0.029 | 0.017 | 0.61 | 0.056 |  |  |  |  |  | 
6 | Cn1cccc1C(=O)N1CCN(c2ccc(N)c(N3CCCCCC3)c2)CC1 [Compound 379, {4-[4-Amino-3-(azepan-1-yl)phenyl]piperazin-1-yl}(1-methyl-1H-pyrrol-2-yl)methanone] | 0.714 |  | 2.58 |  |  |  |  |  | 2.58 | 0.736
7 | CCN(Cc1nn(-c2ccccc2)cc1C(=O)Nc1cccc(F)c1)C(=O)C(Cl)Cl [Compound 8-54, 3-{[(Dichloroacetyl)(ethyl)amino]methyl}-N-(3-fluorophenyl)-1-phenyl-1H-pyrazole-4-carboxamide] | 0.092 |  | 3.9 |  |  |  |  |  |  | 
8 | C=C(C(=O)OC)c1ccc(-c2nn(-c3ccc(C#N)cc3)cc2C(=O)Nc2cccc(F)c2)cc1 [Compound 312, Methyl 2-(4-{4-[(3-fluorophenyl)carbamoyl]-1-4-cyanophenyl-1H-pyrazol-3-yl}phenyl)prop-2-enoate] | 3.61 | 12.5 | 1.2 | 0.251 |  |  |  |  |  | 
9 | CC(=O)c1ccc(-c2nn(-c3ccc(C#N)cc3)cc2C(=O)Nc2cccc(F)c2)cc1 [Compound 316, 3-(4-Acetylphenyl)-N-(3-fluorophenyl)-1-(4-cyanophenyl)-1H-pyrazole-4-carboxamide] | 10.2 | 0.123 | 0.6 | 0.28 |  |  |  |  |  | 
10 | Cc1ccc(NC(=O)c2cn(-c3ccccc3)nc2-c2ccc(F)cc2)cc1 [Compound 131, 3-(4-Fluorophenyl)-N-(4-methylphenyl)-1-phenyl-1H-pyrazole-4-carboxamide] | 0.388 |  | 3.02 |  |  |  |  | 18.8 |  | 
11 | Cn1cccc1C(=O)N1CCN(c2ccc(NC(=O)C(Cl)Cl)c(N3CCCCC3)c2)CC1 [Compound 380, {4-[4-Dichloroacetamido-3-(piperidin-1-yl)phenyl]piperazin-1-yl}(1-methyl-1H-pyrrol-2-yl)methanone] | 0.023 |  | 8.7 |  |  |  |  |  | > 5 | 0.099
